ChEMBL document CHEMBL2177100, “Structural optimization and structure-activity relationships of N2-(4-(4-Methylpiperazin-1-yl)phenyl)-N8-phenyl-9H-purine-2,8-diamine derivatives, a new class of reversible kinase inhibitors targeting both EGFR-activating and resistance mutations” (J Med Chem, 2012)
Calls of active or inactive are those of the source. The calls are words filed in the database; no cut-off is given here.

Legend:
HepG2 = assay: Cytotoxicity against human HepG2 cells incubated for 72 hrs by MTT assay; type: functional, cell-based; settings: HepG2, 72 h
[1] = Cytotoxicity against human HCC827 cells incubated for 72 hrs by MTT assay; type: functional, cell-based; settings: HCC827, 72 h
NCI-H1975 [2] = assay: Cytotoxicity against human NCI-H1975 cells incubated for 72 hrs by MTT assay; type: functional, cell-based; settings: NCI-H1975, 72 h
Mus musculus = assay: Toxicity in human NCI-H1975 cells xenografted BALB/c mouse assessed as body weight loss at 20 mg/kg, po qd; type: organism-based; parameters: dose 20 mg/kg, route oral; settings: in vivo
NCI-H1975 [3] = assay: Antitumor activity against human NCI-H1975 cells xenografted in BALB/c mouse assessed as inhibition of tumor growth at 20 mg/kg, po qd; type: functional; settings: read-out: TGI
HCC827 = assay: Antitumor activity against human HCC827 cells xenografted in BALB/c mouse assessed as reduction tumor volume at 100 mg/kg, po qd; type: functional, organism-based; parameters: dose 100 mg/kg
PC-9 = assay: Cytotoxicity against human PC9 cells incubated for 72 hrs by MTT assay; type: functional, cell-based; settings: PC-9, 72 h
[4] = target: Epidermal growth factor receptor (Homo sapiens, UniProt P00533, L858R); assay: Inhibition of EGFR L858R mutant; type: protein assay
[5] = target: Epidermal growth factor receptor (Homo sapiens, UniProt P00533, L858R/T790M); assay: Inhibition of EGFR L858R/T790M mutant; type: protein assay
Chain of Epidermal growth factor receptor (Homo sapiens, UniProt P00533, L858R/T790M) (P00533 25-1210 T790M/L858R limits assumed): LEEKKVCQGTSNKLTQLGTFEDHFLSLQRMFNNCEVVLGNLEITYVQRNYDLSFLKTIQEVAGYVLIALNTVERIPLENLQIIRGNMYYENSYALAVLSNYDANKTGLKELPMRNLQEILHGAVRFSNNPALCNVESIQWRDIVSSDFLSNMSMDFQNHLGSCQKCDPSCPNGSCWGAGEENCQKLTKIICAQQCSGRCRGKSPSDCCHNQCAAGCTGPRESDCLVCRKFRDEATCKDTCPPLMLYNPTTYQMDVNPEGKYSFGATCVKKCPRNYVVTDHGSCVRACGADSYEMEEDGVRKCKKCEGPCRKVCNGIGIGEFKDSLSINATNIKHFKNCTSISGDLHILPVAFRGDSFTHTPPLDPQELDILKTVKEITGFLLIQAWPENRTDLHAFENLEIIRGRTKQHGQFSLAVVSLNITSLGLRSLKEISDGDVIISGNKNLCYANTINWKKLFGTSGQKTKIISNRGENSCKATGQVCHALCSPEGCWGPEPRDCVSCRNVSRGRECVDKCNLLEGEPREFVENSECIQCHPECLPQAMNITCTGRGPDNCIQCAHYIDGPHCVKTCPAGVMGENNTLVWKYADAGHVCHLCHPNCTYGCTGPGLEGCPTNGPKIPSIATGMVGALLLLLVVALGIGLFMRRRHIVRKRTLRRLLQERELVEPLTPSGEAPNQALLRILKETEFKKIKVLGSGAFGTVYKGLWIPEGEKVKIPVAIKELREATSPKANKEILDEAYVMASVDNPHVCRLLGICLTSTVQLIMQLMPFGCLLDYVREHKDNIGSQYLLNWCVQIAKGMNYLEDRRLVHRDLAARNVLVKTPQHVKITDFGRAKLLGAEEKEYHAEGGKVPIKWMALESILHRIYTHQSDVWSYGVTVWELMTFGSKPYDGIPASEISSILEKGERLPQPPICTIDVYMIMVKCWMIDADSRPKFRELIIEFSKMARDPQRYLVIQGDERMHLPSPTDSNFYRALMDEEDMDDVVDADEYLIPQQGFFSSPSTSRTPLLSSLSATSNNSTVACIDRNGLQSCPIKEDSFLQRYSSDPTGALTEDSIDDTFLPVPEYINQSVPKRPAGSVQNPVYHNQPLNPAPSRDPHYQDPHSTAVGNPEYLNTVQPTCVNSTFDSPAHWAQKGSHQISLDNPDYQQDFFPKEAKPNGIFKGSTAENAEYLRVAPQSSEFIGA

Chain of Epidermal growth factor receptor (Homo sapiens, UniProt P00533, L858R) (P00533 25-1210 L858R limits assumed): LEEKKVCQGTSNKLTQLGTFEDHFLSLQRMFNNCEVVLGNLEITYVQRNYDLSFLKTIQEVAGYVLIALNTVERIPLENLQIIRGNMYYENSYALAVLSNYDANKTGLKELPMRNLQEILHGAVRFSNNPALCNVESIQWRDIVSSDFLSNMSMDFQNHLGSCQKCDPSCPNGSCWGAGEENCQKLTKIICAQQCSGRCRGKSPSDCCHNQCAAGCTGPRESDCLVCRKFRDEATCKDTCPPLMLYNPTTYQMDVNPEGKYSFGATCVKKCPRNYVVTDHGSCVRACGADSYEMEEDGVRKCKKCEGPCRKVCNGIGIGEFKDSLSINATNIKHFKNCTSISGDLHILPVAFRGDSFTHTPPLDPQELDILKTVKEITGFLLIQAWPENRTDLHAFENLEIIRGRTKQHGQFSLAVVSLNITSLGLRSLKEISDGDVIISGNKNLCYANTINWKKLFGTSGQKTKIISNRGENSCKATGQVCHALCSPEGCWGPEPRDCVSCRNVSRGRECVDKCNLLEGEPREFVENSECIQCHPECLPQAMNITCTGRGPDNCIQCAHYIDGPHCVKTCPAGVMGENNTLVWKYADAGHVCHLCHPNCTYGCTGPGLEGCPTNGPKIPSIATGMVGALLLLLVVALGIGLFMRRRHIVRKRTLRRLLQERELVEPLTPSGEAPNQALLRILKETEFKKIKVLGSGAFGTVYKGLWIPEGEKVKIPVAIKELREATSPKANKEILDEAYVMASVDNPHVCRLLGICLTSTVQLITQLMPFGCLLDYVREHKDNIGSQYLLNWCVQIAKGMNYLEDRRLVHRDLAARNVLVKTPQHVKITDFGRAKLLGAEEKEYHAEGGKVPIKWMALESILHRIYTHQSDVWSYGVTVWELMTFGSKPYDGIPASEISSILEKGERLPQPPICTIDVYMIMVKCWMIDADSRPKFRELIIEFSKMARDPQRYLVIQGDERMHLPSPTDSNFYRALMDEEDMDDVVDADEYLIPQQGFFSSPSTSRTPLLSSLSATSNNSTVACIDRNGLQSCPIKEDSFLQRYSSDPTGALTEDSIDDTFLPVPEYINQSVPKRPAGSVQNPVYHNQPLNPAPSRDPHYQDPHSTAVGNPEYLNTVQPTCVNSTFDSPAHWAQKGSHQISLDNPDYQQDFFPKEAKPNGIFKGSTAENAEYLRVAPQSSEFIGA

`CN1CCN(c2ccc(Nc3ncc4nc(Nc5ccccc5)n(-c5ccccc5)c4n3)cc2)CC1` showed an IC50 (HepG2) of over 5 µM, an IC50 [1] of 1.7 nM and an IC50 (NCI-H1975 [2]) of 1830 nM.
For `CN(C)C/C=C/C(=O)Nc1cc2c(Nc3ccc(F)c(Cl)c3)ncnc2cc1O[C@H]1CCOC1` [AFATINIB], the Activity (Mus musculus) was 6.6% and the inhibition in vivo at 20 mg/kg (NCI-H1975 [3]) was 74%.
Compound `CC(=O)Nc1ccc(Nc2ncc3nc(Nc4ccccc4)n(C4CCCC4)c3n2)cc1` has an IC50 (HepG2) of over 5 µM, an IC50 [1] of 0.47 nM and an IC50 (NCI-H1975 [2]) of 1210 nM.
With `CN1CCN(c2ccc(Nc3ncc4nc(Nc5ccccc5)n(C)c4n3)cc2)CC1` the IC50 (HepG2) was over 5 µM, the IC50 [1] was 24 nM and the IC50 (NCI-H1975 [2]) was 6060 nM.
Work on `CN1CCN(c2ccc(Nc3ncc4nc(Nc5cccc(NC(=O)c6ccccc6)c5)n(C5CCCC5)c4n3)cc2)CC1` yielded an IC50 (HepG2) of 2.6 µM, an IC50 [1] of 15 nM and an IC50 (NCI-H1975 [2]) of 2120 nM.
`CN1CCN(c2ccc(Nc3ncc4nc(Nc5ccccc5)n(C5CCCCC5)c4n3)cc2)CC1` gave an IC50 (HepG2) of over 5 µM, an IC50 [1] of under 0.01 nM and an IC50 (NCI-H1975 [2]) of 390 nM.
In the case of `CN1CCN(c2ccc(Nc3ncc4nc(Nc5ccc(Br)cc5)n(C5CCCC5)c4n3)cc2)CC1`, the IC50 (HepG2) is reported as over 5 µM, the IC50 [1] is reported as 2.2 nM and the IC50 (NCI-H1975 [2]) is reported as 2090 nM.
In the case of `OCCNc1ccc(Nc2ncc3nc(Nc4ccccc4)n(C4CCCC4)c3n2)cc1`, the IC50 (HepG2) is reported as over 5 µM, the IC50 [1] is reported as 2.8 nM and the IC50 (NCI-H1975 [2]) is reported as 2810 nM.
`CN1CCN(c2ccc(Nc3ncc4nc(Nc5cccc(Cl)c5)n(C5CCCC5)c4n3)cc2)CC1` showed an IC50 (HepG2) of 4.8 µM, an IC50 [1] of under 0.01 nM and an IC50 (NCI-H1975 [2]) of 390 nM.
In the case of `Cc1cccc(Nc2nc3cnc(Nc4ccc(N5CCN(C)CC5)cc4)nc3n2C2CCCC2)c1`, the IC50 (HepG2) is reported as 4.7 µM, the IC50 [1] is reported as under 0.01 nM and the IC50 (NCI-H1975 [2]) is reported as 560 nM.
Compound `c1ccc(Nc2ncc3nc(Nc4ccccc4)n(C4CCCC4)c3n2)cc1` has an IC50 (HepG2) of over 5 µM, an IC50 [1] of 2.7 nM and an IC50 (NCI-H1975 [2]) of over 10000 nM.
In the case of `CC1CCN(c2ccc(Nc3ncc4nc(Nc5ccccc5)n(C5CCCC5)c4n3)cc2)CC1`, the IC50 (HepG2) is reported as over 5 µM, the IC50 [1] is reported as 32 nM and the IC50 (NCI-H1975 [2]) is reported as 9800 nM.
In the case of `COc1cc2ncnc(Nc3ccc(F)c(Cl)c3)c2cc1OCCCN1CCOCC1` [GEFITINIB], the TGI (HCC827) is reported as “Active” and the IC50 (PC-9) is reported as 14 nM.
For `CN1CCN(c2ccc(Nc3ncc4nc(Nc5cccc([N+](=O)[O-])c5)n(C5CCCC5)c4n3)cc2)CC1`, the IC50 (HepG2) was over 5 µM, the IC50 [1] was under 0.01 nM and the IC50 (NCI-H1975 [2]) was 980 nM.
For `CN1CCN(c2ccc(Nc3ncc4nc(Nc5cccc(O)c5)n(C5CCCC5)c4n3)cc2)CC1`, the IC50 (HepG2) was 4.2 µM, the IC50 [1] was 0.72 nM and the IC50 (NCI-H1975 [2]) was 1020 nM.
`c1ccc(Nc2nc3cnc(Nc4ccc(N5CCOCC5)cc4)nc3n2C2CCCC2)cc1` gave an IC50 (HepG2) of over 5 µM, an IC50 [1] of 0.66 nM and an IC50 (NCI-H1975 [2]) of 9200 nM.
`CN1CCN(c2ccc(Nc3ncc4nc(Nc5ccccc5)n(C5CC5)c4n3)cc2)CC1` gave an IC50 (HepG2) of over 5 µM, an IC50 [1] of 18 nM and an IC50 (NCI-H1975 [2]) of 2860 nM.
`CN1CCN(c2ccc(Nc3ncc4nc(Nc5cc(Cl)ccc5Cl)n(C5CCCC5)c4n3)cc2)CC1` showed an IC50 (HepG2) of over 5 µM, an IC50 [1] of 0.01 nM and an IC50 (NCI-H1975 [2]) of 2540 nM.
In the case of `Cc1cc(C)cc(-n2c(Nc3ccccc3)nc3cnc(Nc4ccc(N5CCN(C)CC5)cc4)nc32)c1`, the IC50 (HepG2) is reported as over 5 µM, the IC50 [1] is reported as 1 nM and the IC50 (NCI-H1975 [2]) is reported as 1910 nM.
`C#Cc1cccc(Nc2nc3cnc(Nc4ccc(N5CCN(C)CC5)cc4)nc3n2C2CCCC2)c1` showed an IC50 (HepG2) of 4.9 µM, an IC50 [1] of under 0.01 nM and an IC50 (NCI-H1975 [2]) of 650 nM.
With `CN1CCN(c2ccc(Nc3ncc4nc(Nc5ccc(Br)cc5F)n(C5CCCC5)c4n3)cc2)CC1` the IC50 (HepG2) was over 5 µM, the IC50 [1] was 2.3 nM and the IC50 (NCI-H1975 [2]) was 1120 nM.
`CN1CCN(c2ccc(Nc3ncc4nc(Nc5cccc(C(=O)Nc6ccc(Cl)cc6)c5)n(C5CCCC5)c4n3)cc2)CC1` gave an IC50 (HepG2) of over 5 µM, an IC50 [1] of 2900 nM and an IC50 (NCI-H1975 [2]) of 4010 nM.
Compound `CN1CCN(c2ccc(Nc3ncc4nc(Nc5ccccc5)[nH]c4n3)cc2)CC1` has an IC50 [4] of 98 nM, an IC50 (HepG2) of over 5 µM and an IC50 [5] of 978 nM. For the same compound, the IC50 [1] was 233 nM and the IC50 (NCI-H1975 [2]) was 18100 nM.
`CC(C)n1c(Nc2ccccc2)nc2cnc(Nc3ccc(N4CCN(C)CC4)cc3)nc21` showed an IC50 (HepG2) of over 5 µM, an IC50 [1] of 0.1 nM and an IC50 (NCI-H1975 [2]) of 960 nM.
